Experimental data published in US20250051300A1, “GRAM-NEGATIVE SPECIFIC ANTIBIOTICS SPARING EFFECT ON GUT MICROBIOME” (THE BOARD OF TRUSTEES OF THE UNIVERSITY OF ILLINOIS, priority 2021, published 2025).
Where two headings read alike, the source gives them in different places.

Experiments:
Enterobacter cloacae = assay: MIC, micro-dilution broth method (CLSI); assay type: cell-based
Aqueous solubility limit = assay type: physicochemical; conditions: limit to which compounds were tested in MIC assays
E. coli AR0349 = assay: Acute pneumonia bacterial burden model; assay type: in vivo, CD-1 mice; conditions: lungs, 72 h post-infection; for reduction in bacterial burden: 100 mg/kg IP twice a day for 3 days
A-549 cells = assay: Cell viability (Alamar Blue), mammalian cell line; assay type: cell-based; conditions: Homo sapiens, A549, read-out: IC50, mammalian cell lines (converted)
Experimental: (§1) Cell culture. HFF-1 cells (newborn) were obtained from the ATCC. […] A-549 cells (adult) were obtained from the ATCC. […] All cells were cultured at 37° C. under a 5% CO2 environment. Cell lines were authenticated externally by a commercial vendor and inspected visually in house. Cell lines were not tested for Mycoplasma contamination. The media was prepared by the University of Illinois School of Chemical Sciences Cell Media Facility. Cell viability. HFF-1 cells were seeded (8,000 cells/well) in a 96-well plate (Greiner Bio-One; catalogue number: 655180) and allowed to attach overnight. Cells were treated with investigational compounds in dimethyl sulfoxide (DMSO). […] Raptinal (100 μM) was used as a dead control. On each plate, at least three technical replicates per compound were performed. After 24 h post-treatment, cell viability was assessed using the Alamar Blue method. Stock Alamar Blue solution (10 μL 440 μM resazurin (Sigma-Aldrich; catalogue number: R7017) in sterile 1×PBS) was added to each well, and the plate was incubated for 3-4 h. Conversion of Alamar Blue was measured with a plate reader (SpectraMax M3; Molecular Devices) by fluorescence (excitation wavelength: 555 nm; emission wavelength: 585 nm; cutoff 570 nm; autogain). Percentage death was determined by normalizing to DMSO-treated cells and Raptinal-treated cells. […]

HFF-1 cells = assay: Cell viability (Alamar Blue), mammalian cell line; assay type: cell-based; conditions: Homo sapiens, HFF-1, 24 h, read-out: IC50, mammalian cell lines
Experimental: as §1

[1] = tested on: E. coli BW25113 LolC/LolE mutants; assay: MIC against lolamycin-resistant LolCDE mutants; assay type: cell-based, Escherichia coli
K. pneumoniae ATCC 27736 = assay: Resistance frequency, large inoculum method; assay type: cell-based, Klebsiella pneumoniae; conditions: wild-type K. pneumoniae ATCC 27736, 8×MIC
Experimental: (§2) Selection of resistant mutants. Resistant mutants were selected using the large inoculum method. Briefly, E. coli BW25113, K. pneumoniae ATCC 27736, or E. cloacae ATCC 29893 (˜1.0×10^7 c.f.u.) was plated on 100-mm plates of Luria Bertani agar containing 8, 16, 32, or 64 μg/mL, lolamycin. For E. coli ΔtolC (JW5503), ˜1.0×10^7 c.f.u. was plated on 100-mm plates of Luria Bertani agar containing 0.063, 0.13, 0.25, 0.5 μg/mL lolamycin. Colonies were visible after incubating at 37° C. for 48 h. Resistant colonies were confirmed by growing colonies in selective media with the same concentration of lolamycin.

E. cloacae ATCC 29893 = assay: Resistance frequency, large inoculum method; assay type: cell-based, Enterobacter cloacae; conditions: wild-type E. cloacae ATCC 29893, 8×MIC
Experimental: as §2

K. pneumoniae AR0040 = assay: Acute pneumonia bacterial burden model; assay type: in vivo, CD-1 mice; conditions: colistin-resistant K. pneumoniae, 100 mg/kg IP (FIG. 7C)
K. pneumoniae BAA-1705 = assay: Bacterial sepsis survival model; assay type: in vivo, CD-1 mice; conditions: carbapenem-resistant K. pneumoniae, 200 mg/kg IP once daily for 3 days (FIG. 7D)
Bacteroides fragilis = assay: MIC, gut commensal bacteria, micro-dilution broth
Bacteroides vulgatus = assay: MIC, gut commensal bacteria, micro-dilution broth
Morganella morganii = assay: MIC, gut commensal bacteria, micro-dilution broth
Proteus mirabilis = assay: MIC, gut commensal bacteria, micro-dilution broth
Streptococcus salivarius = assay: MIC, gut commensal bacteria, micro-dilution broth
Lactobacillus reuteri = assay: MIC, gut commensal bacteria, micro-dilution broth
Blautia producta = assay: MIC, gut commensal bacteria, micro-dilution broth
[2] = Enterobacter cloacae, ATCC29893, E. cloacae ATCC 29893, read-out: MIC
[3] = Enterobacter cloacae, ATCCBAA2341, E. cloacae ATCC BAA-2341, read-out: MIC
[4] = Enterobacter cloacae, ATCCBAA2468, E. cloacae ATCC BAA-2468, read-out: MIC
[5] = Enterobacter cloacae, E. cloacae AR0032, read-out: MIC
[6] = Enterobacter cloacae, E. cloacae AR0038, read-out: MIC
[7] = Enterobacter cloacae, E. cloacae AR0050, read-out: MIC
[8] = Enterobacter cloacae, E. cloacae AR0053, read-out: MIC
[9] = Enterobacter cloacae, E. cloacae AR0060, read-out: MIC
[10] = Enterobacter cloacae, E. cloacae AR0065, read-out: MIC
[11] = Enterobacter cloacae, E. cloacae AR0072, read-out: MIC
[12] = Enterobacter cloacae, E. cloacae AR0073, read-out: MIC
[13] = Enterobacter cloacae, E. cloacae AR0093, read-out: MIC
[14] = Enterobacter cloacae, E. cloacae AR0132, read-out: MIC
[15] = Enterobacter cloacae, E. cloacae AR0136, read-out: MIC
[16] = Enterobacter cloacae, E. cloacae AR0154, read-out: MIC
[17] = Enterobacter cloacae, E. cloacae AR0164, read-out: MIC
[18] = Enterobacter cloacae, E. cloacae AR0544, read-out: MIC
[19] = Enterobacter cloacae, E. cloacae AR0545, read-out: MIC
[20] = Enterobacter cloacae, E. cloacae AR-0163, read-out: MIC

Fc1ccc(COc2cccc(-c3n[nH]cc3-c3ccncc3)c2)cc1 [Compound 2, 4-(3-(3-((4-fluorobenzyl)oxy)phenyl)-1H-pyrazol-4-yl)pyridine]
32 µg/mL: solubility (Aqueous solubility limit; cation-adjusted Mueller Hinton broth (MIC assay medium))
16 µg/mL: MIC (Enterobacter cloacae; [9]) | MIC (Enterobacter cloacae; [10])
fared poorly: reduction in bacterial burden (E. coli AR0349)
> 32 µg/mL: MIC (Enterobacter cloacae; [2]) | MIC (Enterobacter cloacae; [3]) | MIC (Enterobacter cloacae; [4]) | MIC (Enterobacter cloacae; [5]) | MIC (Enterobacter cloacae; [6]) | MIC (Enterobacter cloacae; [8]) | MIC (Enterobacter cloacae; [11]) | MIC (Enterobacter cloacae; [12]) | MIC (Enterobacter cloacae; [13]) | MIC (Enterobacter cloacae; [14]) | MIC (Enterobacter cloacae; [15]) | MIC (Enterobacter cloacae; [17]) | MIC (Enterobacter cloacae; [18]) | MIC (Enterobacter cloacae; [19]) | MIC (Enterobacter cloacae; [20])
>32 µg/mL: MIC (Enterobacter cloacae; E. cloacae AR-0163) | MIC (Enterobacter cloacae; E. cloacae ATCC BAA-2468)
8 µg/mL: MIC (Enterobacter cloacae; [7]) | MIC (Enterobacter cloacae; [16])

Cc1cc(-c2c[nH]nc2-c2cccc(OCc3cccc(C#N)c3)c2)cc(C)n1 [Compound 12, 3-((3-(4-(2,6-dimethylpyridin-4-yl)-1H-pyrazol-3-yl)phenoxy)methyl)benzonitrile]
2 µg/mL: MIC (Enterobacter cloacae; [5]) | MIC (Enterobacter cloacae; [13]) | MIC (Enterobacter cloacae; [17])
showed the efficacy: efficacy, bacterial burden (K. pneumoniae AR0040) | efficacy, survival (K. pneumoniae BAA-1705)
1.2×10^−8: resistance frequency (K. pneumoniae ATCC 27736)
0.5 µg/mL: MIC (Enterobacter cloacae; [7])
5.2×10^−7: resistance frequency (E. cloacae ATCC 29893)
85.3 ± 11.8 µM: IC50 (HFF-1 cells)
> 128 µg/mL: MIC ([1]; Escherichia coli, BW25113) | MIC (Bacteroides fragilis; Bacteroides fragilis, ATCC25285) | MIC (Bacteroides vulgatus; Phocaeicola vulgatus) | MIC (Morganella morganii; ATCC25380) | MIC (Morganella morganii; ATCC25839) | MIC (Proteus mirabilis; Proteus mirabilis, ATCC35659) | MIC (Streptococcus salivarius; Streptococcus salivarius) | MIC (Lactobacillus reuteri; Limosilactobacillus reuteri, ATCC23272) | MIC (Blautia producta) | MIC (Blautia producta; Blautia producta, ATCC27340)
3 log: reduction in bacterial burden vs vehicle (E. coli AR0349; 200 mg/kg PO twice a day for 3 days)
2 log: reduction in bacterial burden (E. coli AR0349)
8 µg/mL: MIC (Enterobacter cloacae; [6]) | MIC (Enterobacter cloacae; [20])
0.25 µg/mL: MIC (Enterobacter cloacae; [16])
>128 µg/mL: MIC ([1]; E. coli BW25113 mutant D264N (LolE), selected at 32-fold MIC) | MIC ([1]; E. coli BW25113 mutant E195K (LolC), selected at 32-fold MIC) | MIC ([1]; E. coli BW25113 mutant E255D (LolC), selected at 32-fold MIC) | MIC ([1]; E. coli BW25113 mutant F367S (LolE), selected at 32-fold MIC) | MIC ([1]; E. coli BW25113 mutant I206N (LolE), selected at 32-fold MIC) | MIC ([1]; E. coli BW25113 mutant M262I (LolC), selected at 32-fold MIC) | MIC ([1]; E. coli BW25113 mutant N265K (LolC), selected at 32-fold MIC) | MIC ([1]; E. coli BW25113 mutant Q258P (LolC), selected at 32-fold MIC) | MIC (Bacteroides fragilis; Bacteroides fragilis ATCC 25285, BHI-ych, listed as Lolamycin) | MIC (Bacteroides vulgatus; Bacteroides vulgatus KLE 2303, BHI-ych, listed as Lolamycin) | MIC (Proteus mirabilis; Proteus mirabilis ATCC 35659, listed as Lolamycin) | MIC (Streptococcus salivarius; Streptococcus salivarius KLE 2370, BHI-ych, listed as Lolamycin) | MIC (Lactobacillus reuteri; Lactobacillus reuteri ATCC 23272, BHI-ych, listed as Lolamycin)
128 µg/mL: solubility (Aqueous solubility limit; aqueous medium (not further specified)) | solubility (Aqueous solubility limit)
4 µg/mL: MIC (Enterobacter cloacae; [2]) | MIC (Enterobacter cloacae; [4]) | MIC (Enterobacter cloacae; [8]) | MIC (Enterobacter cloacae; [11]) | MIC (Enterobacter cloacae; [15]) | MIC (Enterobacter cloacae; [18])
16 µg/mL: MIC (Enterobacter cloacae; [3]) | MIC (Enterobacter cloacae; [12])
1 µg/mL: MIC (Enterobacter cloacae; [9]) | MIC (Enterobacter cloacae; [10]) | MIC (Enterobacter cloacae; [14]) | MIC (Enterobacter cloacae; [19])
41.9 µM: IC50 (A-549 cells)
